# Source: patent US20040009208A1, “Safe and effective nutritional supplement formulations and associated regimens adapted to prevent and/or treat targeted diseases or medical or health conditions, and related methods” (Vital Living, Inc., priority 2002, published 2004)
# Experiments:
# HDL cholesterol [1] = conditions: low doses (500-1000 mg/day); cited from earlier work
# triglycerides [2] = assay: Projected benefit on triglyceride level (Table 5); format: in vivo, patients; conditions: expected range of benefits, CVD-specific nutraceutical regimen
# Excerpt: (§1) The particular CVD-specific nutraceuticals and regimens herein disclosed were also designed to achieve a measurable benefit on lipid levels equivalent to those provided by many popular pharmaceutical drug therapies. The expected range of benefits (“NC” indicating no change) is projected as indicated below in Table 5. Given that all of the nutritional supplement ingredients used in the CVD-specific nutraceutical herein disclosed operate according to independent mechanisms, the cumulative effective on LDL cholesterol, HDL cholesterol, triglycerides and homocysteine levels would be additive and would not counteract each other or interfere with common CVD prescription pharmaceutical treatments.
# LDL cholesterol [3] = assay: Projected benefit on LDL cholesterol level (Table 5); format: in vivo, patients; design: key: “NC” indicating no change; conditions: expected benefit, class symbol
# Excerpt: as §1
# LDL cholesterol [4] = conditions: higher doses (1000-3000 mg/day); cited from earlier work
# HDL cholesterol [5] = assay: Projected benefit on HDL cholesterol level (Table 5); format: in vivo, patients; conditions: expected range of benefits, CVD-specific nutraceutical regimen
# Excerpt: as §1
# homocysteine = assay: Projected benefit on homocysteine level (Table 5); format: in vivo, patients; design: key: “NC” indicating no change; conditions: expected benefit, class symbol
# Excerpt: as §1
# triglycerides [6] = conditions: low doses (500-1000 mg/day); cited from earlier work
smiles,measurement,setting,value
O=C(O)c1cccnc1 [Niacin],effect on HDL cholesterol,HDL cholesterol [1],raise HDL cholesterol
same,TRIGLYCERIDES decrease,triglycerides [2],0-10%
same,LDL,LDL cholesterol [3],NC
same,effect on LDL cholesterol,LDL cholesterol [4],decrease LDL cholesterol modestly
same,HDL increase,HDL cholesterol [5],5-10%
same,HOMOCYSTEINE,homocysteine,NC
same,effect on triglycerides,triglycerides [6],lower triglycerides
